Patent US20230066011A1, “PYRROLOPYRIMIDINE DERIVATIVE, AND PHARMACEUTICAL COMPOSITION FOR PREVENTING OR TREATING PROTEIN KINASE-RELATED DISEASE COMPRISING SAME AS ACTIVE INGREDIENT” (VORONOI CO., LTD., priority 2019, published 2023)

Experiments:
human GST-CLK1 = molecular target: T1, human GST-CLK1 (Homo sapiens, UniProt P49759); experiment: GST-CLK1 enzyme inhibition, ADP-Glo kinase assay; format: biochemical; conditions: ATP 10 μM, GST-CLK1 129-end
T1 construct: purified human GST-CLK1 (129-end, SignalChem) enzyme; purchased SignalChem
In short: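 Human GST-CLK1 (129-end, 3 ng) reacted with substrate and 10 μM ATP for 1 h at 25° C in 40 mM Tris-HCl pH 7.4, 20 mM MgCl2, 0.5 mg/mL BSA, 50 μM DTT. ADP-Glo luminescence was normalised to solvent control; IC50 (nM) from 3 data sets.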

LRRK2 [1] = molecular target: T2, LRRK2 (Homo sapiens, UniProt Q5S007); experiment: LRRK2 enzyme inhibition, ADP-Glo kinase assay; format: biochemical; design: purchased Invitrogen PR8604B; conditions: ATP 10 μM
In short: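 Purified human LRRK2 (25 ng) with 10 μM ATP and 0.2 μg substrate in 40 mM Tris-HCl pH 7.4, 20 mM MgCl2, 0.5 mg/mL BSA, 50 μM DTT, 2 h at 25° C. ADP-Glo luminescence; 12-point compound series from 50 μM final; IC50 relative to solvent control.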
Target sequence in this assay (Q5S007 970-2527 limits assumed): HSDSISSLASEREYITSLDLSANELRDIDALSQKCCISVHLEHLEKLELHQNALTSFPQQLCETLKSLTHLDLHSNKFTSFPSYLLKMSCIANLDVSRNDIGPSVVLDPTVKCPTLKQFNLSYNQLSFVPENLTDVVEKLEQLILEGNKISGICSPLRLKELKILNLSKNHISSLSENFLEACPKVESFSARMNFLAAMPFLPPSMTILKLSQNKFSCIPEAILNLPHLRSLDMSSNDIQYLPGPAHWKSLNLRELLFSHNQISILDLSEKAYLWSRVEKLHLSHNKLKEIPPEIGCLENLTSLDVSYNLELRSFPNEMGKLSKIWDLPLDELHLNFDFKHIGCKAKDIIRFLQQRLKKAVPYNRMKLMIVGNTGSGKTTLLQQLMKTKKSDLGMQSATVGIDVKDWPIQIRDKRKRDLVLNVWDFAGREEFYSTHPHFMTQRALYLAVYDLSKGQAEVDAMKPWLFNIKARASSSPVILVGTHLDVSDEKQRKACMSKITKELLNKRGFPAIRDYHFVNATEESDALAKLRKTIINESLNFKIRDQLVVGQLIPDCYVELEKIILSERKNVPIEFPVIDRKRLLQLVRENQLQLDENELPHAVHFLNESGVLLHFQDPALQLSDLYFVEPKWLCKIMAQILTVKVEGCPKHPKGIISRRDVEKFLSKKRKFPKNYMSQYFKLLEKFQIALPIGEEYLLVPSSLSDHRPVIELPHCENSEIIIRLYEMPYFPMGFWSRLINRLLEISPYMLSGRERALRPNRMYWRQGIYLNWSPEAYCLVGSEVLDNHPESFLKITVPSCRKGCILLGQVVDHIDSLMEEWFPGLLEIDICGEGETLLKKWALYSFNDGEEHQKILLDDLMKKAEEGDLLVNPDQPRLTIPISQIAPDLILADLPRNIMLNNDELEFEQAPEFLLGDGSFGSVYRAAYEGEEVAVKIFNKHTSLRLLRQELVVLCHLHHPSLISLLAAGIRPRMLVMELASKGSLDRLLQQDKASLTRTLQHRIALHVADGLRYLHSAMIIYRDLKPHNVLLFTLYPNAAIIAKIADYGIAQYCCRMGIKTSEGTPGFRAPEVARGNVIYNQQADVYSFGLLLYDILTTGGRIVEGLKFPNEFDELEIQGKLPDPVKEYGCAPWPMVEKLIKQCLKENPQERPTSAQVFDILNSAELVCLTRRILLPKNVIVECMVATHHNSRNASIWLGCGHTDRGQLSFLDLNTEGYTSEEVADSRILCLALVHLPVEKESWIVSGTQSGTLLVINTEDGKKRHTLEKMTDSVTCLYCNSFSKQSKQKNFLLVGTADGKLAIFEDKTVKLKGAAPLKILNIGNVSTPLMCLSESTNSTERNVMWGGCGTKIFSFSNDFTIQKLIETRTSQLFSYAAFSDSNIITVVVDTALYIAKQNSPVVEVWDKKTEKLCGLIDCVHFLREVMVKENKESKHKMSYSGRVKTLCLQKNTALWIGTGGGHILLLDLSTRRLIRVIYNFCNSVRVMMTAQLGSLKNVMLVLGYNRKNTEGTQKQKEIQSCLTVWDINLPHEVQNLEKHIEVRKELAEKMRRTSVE

DYRK1 = DYRK1 (Homo sapiens, UniProt Q13627); experiment: Kinase HotSpot service (Reaction Biology Corporation), DYRK1; format: biochemical; conditions: ATP 10 uM, read-out: DYRK1 IC50 (values indicated by *)
Procedure: (§1) The inhibitory activities of the compounds were measured at a 3-fold concentration gradient starting from a maximum compound concentration of […], and the values measured using the Kinase HotSpot service (Reaction Biology Corporation) are indicated by an asterisk (*).
(§2) All the experimental methods were performed as provided by the Kinase HotSpot Customer Protocol (http://www.reactionbiology.com//Kinase_Assay_Protocol).

MDA-MB-468 cell line = experiment: Inhibition of proliferation of MDA-MB-468 cancer cells (Cell Titer-Glo); format: cell-based
In short: (§3)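 Cells seeded at 2,000/well and exposed 72 h to 11 concentrations of compound (3-fold dilutions, final 10.000000 down to 0.000169 μM) in DMEM or RPMI. Viability read by Cell Titer-Glo luminescence after 10 min at room temperature; GI50 calculated from luminescence.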

LRRK2 (G2019S) = LRRK2 (G2019S) (Homo sapiens, UniProt Q5S007, G2019S); experiment: LRRK2 G2019S enzyme inhibition, ADP-Glo kinase assay; format: biochemical; design: purchased SignalChem L10-12GG; conditions: ATP 25 μM
In short: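 Purified human LRRK2 G2019S (16 ng) with 25 μM ATP and 0.2 μg substrate, 2 h at 25° C. in Tris-HCl pH 7.4, MgCl2, BSA, DTT buffer; compounds at 12 final concentrations, 50 μM down to 0.000001024 μM. ADP-Glo luminescence versus solvent control gave IC50.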

human DYRK1A and tau = experiment: Inhibition of tau phosphorylation, ClariCELL Kinase Cell-Based Assay, HEK 293 cells expressing human DYRK1A and tau; conditions: for inhibition at 1 µM: HEK293, read-out: % inhibition at 1 uM, tau phosphorylation, compound 1 uM; for inhibition at 0.25 µM / inhibition at 0.5 µM: HEK293, tau phosphorylation
In short: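 Cell-based service assay: HEK 293 cells transiently expressing human DYRK1A and tau were treated with compound and lysed. Released tau was plate-captured and its phosphorylation quantified by ELISA with a phospho-tau-specific antibody.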

TNF-α = experiment: Inhibition of LPS-induced TNF-α secretion of THP-1 monocytes (ELISA); format: cell-based, human; conditions: compound 0.5 μM, LPS 500 ng/mL, 24 hours
Procedure: (§4) To evaluate an inhibitory effect on cytokine secretion of monocytes, THP-1 cells (ATCC, #TIB-202) as a human-derived monocyte line were cultured in an RPMI-1640 (Hyclone, SH30027.01) medium supplemented with 10% fetal bovine serum (Hyclone, SH30084.03), 1% penicillin streptomycin (Welgene, LS202-02), and 50 μM 2-mercaptoethanol (Gibco, #21985023). In the test, the cells were seeded in a 48-well plate (SPL, #30048) at a density of 1.5 to 2×10^5 cells/250 μL per well, and cultured at 37° C. for 16 hours in a 5% CO2 incubator. Thereafter, the compound was diluted with DMSO so that the final concentration of the compound was 0.5 μM. Then, the cells were treated with the diluted compound before an hour of treatment with lipopolysaccharides (LPS) (Sigma, #L6529). After the treatment with the compound, the cells were treated with LPS so that the final concentration was 500 ng/mL. Then, a cell culture broth was collected after 24 hours of culture, and levels of cytokine IL-6 (R&D Systems, #D6050) and TNF-α (R&D Systems, #DTA00D) comprised in the culture broth were measured using respective ELISA kits. After an experiment was performed according to the manufacturer's guidelines, cell analysis was performed by measuring the optical density at 450 nm using a microplate reader.

human GST-DYRK1A = molecular target: T3, human GST-DYRK1A (Homo sapiens, UniProt Q13627); experiment: GST-DYRK1A enzyme inhibition, ADP-Glo kinase assay; format: biochemical; conditions: ATP 10 μM, GST-DYRK1A full length, read-out: DYRK1 IC50
T3 construct: purified human GST-DYRK1A (full length, Thermo Scientifics) enzyme; purchased Thermo Scientifics
In short: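 Full-length human GST-DYRK1A (10 ng) with 10 μM ATP and specific substrate in 40 mM Tris-HCl pH 7.4, 20 mM MgCl2, 0.5 mg/mL BSA, 50 μM DTT, 1 h at 25 °C. ADP formation read by ADP-Glo luminescence relative to solvent control; IC50 from three data sets.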

IL-6 = experiment: Inhibition of LPS-induced IL-6 secretion of THP-1 monocytes (ELISA); format: cell-based, human; conditions: compound 0.5 μM, LPS 500 ng/mL, 24 hours
Procedure: as §4

CLK1 = molecular target: T4, CLK1 (Homo sapiens, UniProt P49759); experiment: Kinase HotSpot service (Reaction Biology Corporation), CLK1; format: biochemical; conditions: ATP 10 uM, read-out: CLK1 IC50 (values indicated by *)
T4 construct: purchased DiscoverX Corp. (ScanMAX Kinase analysis panel, service)
Procedure: as §1, §2

MDA-MB-231 cell line = experiment: Inhibition of proliferation of MDA-MB-231 cancer cells (Cell Titer-Glo); format: cell-based; conditions: Homo sapiens, 72 hours
In short: as §3

LRRK2 [2] = molecular target: T2, LRRK2; experiment: Kinase HotSpot service (Reaction Biology Corporation), LRRK2; format: biochemical; design: purchased DiscoverX Corp. (ScanMAX Kinase analysis panel, service); conditions: ATP 10 uM, read-out: LRRK2 IC50 (values indicated by *)
Procedure: as §1, §2
Target sequence in this assay (Q5S007 whole entry): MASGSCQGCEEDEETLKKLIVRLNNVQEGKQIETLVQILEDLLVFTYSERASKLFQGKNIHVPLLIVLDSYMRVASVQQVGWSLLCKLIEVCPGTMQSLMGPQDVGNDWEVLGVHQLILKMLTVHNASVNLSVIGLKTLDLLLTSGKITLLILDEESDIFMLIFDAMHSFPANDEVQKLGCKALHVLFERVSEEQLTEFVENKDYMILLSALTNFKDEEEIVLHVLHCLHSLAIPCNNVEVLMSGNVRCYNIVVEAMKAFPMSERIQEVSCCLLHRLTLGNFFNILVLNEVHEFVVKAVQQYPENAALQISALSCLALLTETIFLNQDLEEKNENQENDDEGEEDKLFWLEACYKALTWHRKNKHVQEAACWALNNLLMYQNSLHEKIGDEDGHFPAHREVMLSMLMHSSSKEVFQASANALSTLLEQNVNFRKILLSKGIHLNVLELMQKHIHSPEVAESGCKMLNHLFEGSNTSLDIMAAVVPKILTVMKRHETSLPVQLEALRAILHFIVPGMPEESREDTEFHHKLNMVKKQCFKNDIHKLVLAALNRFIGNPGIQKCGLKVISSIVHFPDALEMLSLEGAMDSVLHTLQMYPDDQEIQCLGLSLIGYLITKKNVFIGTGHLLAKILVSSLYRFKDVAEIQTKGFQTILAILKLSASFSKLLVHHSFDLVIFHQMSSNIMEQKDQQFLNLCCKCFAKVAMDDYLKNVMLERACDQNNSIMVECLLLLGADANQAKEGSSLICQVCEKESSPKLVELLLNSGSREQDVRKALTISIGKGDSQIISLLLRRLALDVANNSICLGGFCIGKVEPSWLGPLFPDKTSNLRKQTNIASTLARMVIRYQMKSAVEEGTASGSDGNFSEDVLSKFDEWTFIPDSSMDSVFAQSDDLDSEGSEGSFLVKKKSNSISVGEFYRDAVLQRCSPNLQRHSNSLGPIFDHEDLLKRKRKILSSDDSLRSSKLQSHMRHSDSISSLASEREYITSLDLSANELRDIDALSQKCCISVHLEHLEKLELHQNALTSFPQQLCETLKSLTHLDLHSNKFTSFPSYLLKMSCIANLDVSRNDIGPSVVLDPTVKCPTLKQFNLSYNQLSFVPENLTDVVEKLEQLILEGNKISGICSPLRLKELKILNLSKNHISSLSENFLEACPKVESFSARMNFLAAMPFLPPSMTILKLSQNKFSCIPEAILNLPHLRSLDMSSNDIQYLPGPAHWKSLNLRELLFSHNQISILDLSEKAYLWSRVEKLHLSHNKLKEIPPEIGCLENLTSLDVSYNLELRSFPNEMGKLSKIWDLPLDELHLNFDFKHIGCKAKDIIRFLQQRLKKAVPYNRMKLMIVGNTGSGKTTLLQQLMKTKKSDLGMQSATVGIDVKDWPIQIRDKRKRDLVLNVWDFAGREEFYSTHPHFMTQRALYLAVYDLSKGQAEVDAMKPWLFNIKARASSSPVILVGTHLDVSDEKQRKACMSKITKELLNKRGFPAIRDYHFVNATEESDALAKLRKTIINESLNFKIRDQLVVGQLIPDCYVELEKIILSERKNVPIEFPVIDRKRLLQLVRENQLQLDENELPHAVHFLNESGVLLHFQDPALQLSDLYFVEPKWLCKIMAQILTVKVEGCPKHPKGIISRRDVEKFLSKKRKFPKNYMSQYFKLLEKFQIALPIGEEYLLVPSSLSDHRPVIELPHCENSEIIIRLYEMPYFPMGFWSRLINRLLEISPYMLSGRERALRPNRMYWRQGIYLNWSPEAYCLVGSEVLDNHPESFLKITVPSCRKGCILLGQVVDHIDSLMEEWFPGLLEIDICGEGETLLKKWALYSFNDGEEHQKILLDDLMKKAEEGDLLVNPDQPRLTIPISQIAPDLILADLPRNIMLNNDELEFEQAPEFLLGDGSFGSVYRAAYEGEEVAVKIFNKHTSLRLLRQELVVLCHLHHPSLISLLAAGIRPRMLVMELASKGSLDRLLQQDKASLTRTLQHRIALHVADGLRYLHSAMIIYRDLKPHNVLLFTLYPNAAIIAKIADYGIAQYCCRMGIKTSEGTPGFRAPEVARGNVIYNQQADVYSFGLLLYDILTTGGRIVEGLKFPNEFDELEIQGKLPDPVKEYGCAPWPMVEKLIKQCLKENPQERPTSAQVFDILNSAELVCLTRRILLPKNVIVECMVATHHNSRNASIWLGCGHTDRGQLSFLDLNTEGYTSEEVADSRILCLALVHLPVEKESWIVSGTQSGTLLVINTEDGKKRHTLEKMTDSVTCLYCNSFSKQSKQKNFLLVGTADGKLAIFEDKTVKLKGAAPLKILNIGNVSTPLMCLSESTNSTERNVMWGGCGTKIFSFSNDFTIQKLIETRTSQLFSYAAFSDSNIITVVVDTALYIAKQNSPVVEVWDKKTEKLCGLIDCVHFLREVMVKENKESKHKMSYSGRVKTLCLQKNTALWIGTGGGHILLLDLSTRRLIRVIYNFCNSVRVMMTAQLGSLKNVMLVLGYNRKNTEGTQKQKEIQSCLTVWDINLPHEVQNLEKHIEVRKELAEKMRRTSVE

[3] = Homo sapiens, MDA-MB-468, 72 hours

T1 sequence (P49759 129-484 limits assumed): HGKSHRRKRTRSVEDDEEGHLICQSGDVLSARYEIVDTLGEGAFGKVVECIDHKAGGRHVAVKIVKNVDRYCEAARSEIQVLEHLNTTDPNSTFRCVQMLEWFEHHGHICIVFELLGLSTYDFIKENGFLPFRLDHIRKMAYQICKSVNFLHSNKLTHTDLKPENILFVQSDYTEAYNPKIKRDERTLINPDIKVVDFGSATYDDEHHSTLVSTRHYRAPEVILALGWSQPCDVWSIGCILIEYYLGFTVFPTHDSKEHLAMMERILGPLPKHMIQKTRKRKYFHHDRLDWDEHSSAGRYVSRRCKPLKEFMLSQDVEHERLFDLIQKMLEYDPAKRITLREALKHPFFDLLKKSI
Sequence of LRRK2 (G2019S) (Q5S007 970-2527 G2019S limits assumed): as the sequence (Q5S007 970-2527 limits assumed) above, with G1050S counted along it
T4 sequence (P49759 whole entry): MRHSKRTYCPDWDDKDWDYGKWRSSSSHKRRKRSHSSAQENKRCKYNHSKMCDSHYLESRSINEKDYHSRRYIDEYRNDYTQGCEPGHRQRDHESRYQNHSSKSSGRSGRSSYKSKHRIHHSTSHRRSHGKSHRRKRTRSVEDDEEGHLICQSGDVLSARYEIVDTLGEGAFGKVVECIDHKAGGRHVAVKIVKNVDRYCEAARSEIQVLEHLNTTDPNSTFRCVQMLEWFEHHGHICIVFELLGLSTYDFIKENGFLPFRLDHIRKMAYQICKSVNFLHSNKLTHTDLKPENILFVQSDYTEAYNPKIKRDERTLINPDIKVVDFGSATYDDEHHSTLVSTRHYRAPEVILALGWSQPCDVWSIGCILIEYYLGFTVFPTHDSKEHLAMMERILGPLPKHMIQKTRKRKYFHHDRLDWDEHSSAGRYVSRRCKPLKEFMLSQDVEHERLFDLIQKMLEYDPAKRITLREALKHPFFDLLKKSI

**Q.** What does the source list for `N#Cc1c[nH]c2nc(Nc3ccc(C(=O)N4CCOCC4)c4c3OCCO4)nc(C3CC3)c12` [Example 220, 4-cyclopropyl-2-((8-(morpholine-4-carbonyl)-2,3-dihydrobenzo[b][1,4]dioxin-5-yl)amino)-7H-pyrrolo[2,3-d]pyrimidine-5-carbonitrile]?
**A.** IC50 (human GST-CLK1): < 100 nM; IC50 (LRRK2 [1]): < 100 nM; IC50 (DYRK1): < 100 nM; GI50 (MDA-MB-468 cell line; [3]): 101 to 300 nM

**Q.** For `CCc1nc(Nc2ccc(P3(=O)CCN(C4CC4)CC3)cc2OC)nc2[nH]cc(C(F)(F)F)c12` [Example 396, 1-cyclopropyl-4-(4-((4-ethyl-5-(trifluoromethyl)-7H-pyrrolo[2,3-d]pyrimidin-2-yl)amino)-3-methoxyphenyl)-1,4-azaphosphinane-4-oxide], which IC50 (human GST-CLK1) is on record?
**A.** The IC50 was 301 to 1000 nM.

**Q.** What about the IC50 (LRRK2 [1]) of the same compound?
**A.** Its IC50 is 101 to 300 nM.

**Q.** And the IC50 (DYRK1)?
**A.** The IC50 was < 100 nM.

**Q.** `COc1cc(P2(=O)CCN(C3CC3)CC2)ccc1Nc1nc(C2CC2)c2c(C(F)(F)F)c[nH]c2n1` [Example 394, 1-cyclopropyl-4-(4-((4-cyclopropyl-5-(trifluoromethyl)-7H-pyrrolo[2,3-d]pyrimidin-2-yl)amino)-3-methoxyphenyl)-1,4-azaphosphinane4-oxide] was tested. Which IC50 (human GST-CLK1) did it give?
**A.** Its IC50 is 301 to 1000 nM.

**Q.** What about the IC50 (LRRK2 [1]) of the same compound?
**A.** The IC50 was < 100 nM.

**Q.** What about the IC50 (DYRK1) of the same compound?
**A.** Its IC50 is < 100 nM.

**Q.** What about the GI50 (MDA-MB-468 cell line; [3]) of the same compound?
**A.** The GI50 was 301 to 1000 nM.

**Q.** `COc1cc(P(C)(C)=O)ccc1Nc1nc(C2CC2)c2c(C(F)(F)F)c[nH]c2n1` [Example 229, (4-((4-cyclopropyl-5-(trifluoromethyl)-7H-pyrrolo[2,3-d]pyrimidin-2-yl)amino)-3-methoxyphenyl)dimethylphosphine oxide] was tested. Which IC50 (human GST-CLK1) did it give?
**A.** Its IC50 is 101 to 300 nM.

**Q.** And the IC50 (DYRK1)?
**A.** Its IC50 is < 100 nM.

**Q.** Which results are given for `CCCNc1nc(Nc2ccc(C(=O)N3CCN(C4COC4)CC3)c3c2OCCO3)nc2[nH]cc(C(F)(F)F)c12` [Example 402, (4-(oxetan-3-yl)piperazin-1-yl)(8-((4-(propylamino)-5-(trifluromethyl)-7H-pyrrolo[2,3-d]pyrimidin-2-yl)amino)-2,3-dihydrobenzo[b] [1,4]dioxin-5-yl)methanone]?
**A.** IC50 (LRRK2 (G2019S)): < 100 nM; % inhibition at 0.25 uM (human DYRK1A and tau; tau phosphorylation, compound 0.25 uM): 7.9%; % inhibition at 0.5 uM (human DYRK1A and tau; tau phosphorylation, compound 0.5 uM): 26.5%; % inhibition at 1 uM (human DYRK1A and tau; tau phosphorylation, compound 1 uM): 61.7%; THP-1/TNF-α (% inhib) (TNF-α): 1.4 % inhib; IC50 (human GST-DYRK1A): < 100 nM; IC50 (human GST-CLK1): < 100 nM; THP1/IL6 (% inhib) (IL-6): 18.2 % inhib; GI50 (MDA-MB-468 cell line; 72 hours): 301 to 1000 nM

**Q.** For `C=CCNc1nc(Nc2ccc(S(=O)(=O)N3CCC(N4CCOCC4)CC3)cc2OC)nc2[nH]cc(C(F)(F)F)c12` [Example 469, N^4-allyl-N2-(2-methoxy-4-((4-morpholino-piperidin-1-yl)sulfonyl)phenyl)-5-(trifluoromethyl)-7H-pyrrolo[2,3-d]pyrimidine-2,4-diamine], which IC50 (CLK1) is on record?
**A.** Its IC50 is < 100 nM.

**Q.** What about the IC50 (LRRK2 (G2019S)) of the same compound?
**A.** Its IC50 is < 100 nM.

**Q.** What about the GI50 (MDA-MB-231 cell line) of the same compound?
**A.** Its GI50 is 101 to 300 nM.

**Q.** What about the IC50 (LRRK2 [2]) of the same compound?
**A.** The IC50 was < 100 nM.

**Q.** What about the IC50 (DYRK1) of the same compound?
**A.** Its IC50 is < 100 nM.

**Q.** And the GI50 (MDA-MB-468 cell line; [3])?
**A.** Its GI50 is 101 to 300 nM.

**Q.** What does the source list for `O=C(c1ccc(Nc2nc(C3CC3)c3c(C(F)(F)F)c[nH]c3n2)c2c1CCO2)N1CC[C@@H](N2CCOCC2)C1` [Example 471, (R)-(7-((4-cyclopropyl-5-(trifluoromethyl)-7H-pyrrolo[2,3-d]pyrimidin-2-yl)amino)-2,3-dihydrobenzo-furan-4-yl)(3-morpholino-pyrrolidin-1-yl)methanone]?
**A.** inhibition at 1 µM (human DYRK1A and tau): 42.8%; inhibition at 0.25 µM (human DYRK1A and tau; compound 0.25 uM): 3.9%; inhibition at 0.5 µM (human DYRK1A and tau; compound 0.5 uM): 29.6%; IC50 (human GST-CLK1): < 100 nM; IC50 (DYRK1): < 100 nM

**Q.** Which inhibition at 1 µM (human DYRK1A and tau) does the source give for `O=S(=O)(c1ccc(Nc2nc(C3CC3)c3c(C(F)(F)F)c[nH]c3n2)c2c1OCCO2)N1CCOCC1` [Example 470, 4-cyclopropyl-N-(8-(morpho-linosulfonyl)-2,3-dihydrobenzo [b][1,4]dioxin-5-yl)-5-(trifluoromethyl)-7H-pyrrolo[2,3-d]pyrimidin-2-amine] here?
**A.** Its inhibition at 1 µM is 29.1%.

**Q.** What about the inhibition at 0.25 µM (human DYRK1A and tau; compound 0.25 uM) of the same compound?
**A.** The inhibition at 0.25 µM was 5.8%.

**Q.** What about the inhibition at 0.5 µM (human DYRK1A and tau; compound 0.5 uM) of the same compound?
**A.** The inhibition at 0.5 µM was 19.2%.

**Q.** And the IC50 (human GST-CLK1)?
**A.** The IC50 was 301 to 1000 nM.

**Q.** And the IC50 (DYRK1)?
**A.** The IC50 was < 100 nM.

**Q.** Which results are given for `CCc1nc(Nc2ccc(C(=O)N3CCC(N4CCOCC4)CC3)c3c2OCCO3)nc2[nH]cc(C(F)(F)F)c12` [Example 395, (8-((4-ethyl-5-(trifluoromethyl)-7H-pyrrolo[2,3-d]pyrimidin-2-yl)amino)-2,3-dihydrobenzo [b][1,4]dioxin-5-yl)(4-morpholino-piperidin-1-yl)methanone]?
**A.** IC50 (human GST-CLK1): 101 to 300 nM; IC50 (LRRK2 [1]): < 100 nM; IC50 (DYRK1): < 100 nM
